Source: patent US20160122320A1, “USEFUL COMBINATIONS OF MONOBACTAM ANTIBIOTICS WITH BETA-LACTAMASE INHIBITORS” (Basilea Pharmaceutica AG, priority 2005, published 2016)
Where a name gives a salt, the structure may show the parent alone.

Assays:
Test in all cases: MIC, NCCLS broth microdilution
Format in all cases: cell-based
[1] = tested on: Stenotrophomonas malthophilia 1AC736; settings: for MIC of antibiotic at fixed inhibitor concentration (4 mg/L): Stenotrophomonas malthophilia 1AC736, MIC of antibiotic compound 1 with the labelled bridged monobactam of formula II and clavulanate, 4 mg/L each
Acinetobacter sp. J2 = settings: for MIC of antibiotic at fixed inhibitor concentration (4 mg/L): Acinetobacter sp. J2, MIC of antibiotic compound 1 with the labelled bridged monobactam of formula II and clavulanate, 4 mg/L each
Protocol: Antimicrobial activity of the compounds and of their combinations was determined against a selection of organisms according to the standard procedures described by the National Committee for Clinical Laboratory Standards (National Committee for Clinical Laboratory. Standards (2000). Methods for Dilution Antimicrobial Susceptibility Tests for Bacteria That Grow Aerobically-Fifth Edition: Approved Standard M7-A5. NCCLS, Wayne, Pa., USA).
In all cases the final concentration of DMSO incubated with the bacteria is less than or equal to 1%. […] Plates were incubated overnight at an appropriate temperature (30° C. or 37° C.) and optical densities assessed by eye. The MIC value is defined as the lowest compound concentration completely inhibiting visible growth of the test organism. When combinations between compounds of formula I with compounds of formula II and are evaluated the compounds of formula I are tested in dilution series as described above while the compounds of formula II and III-XIII were present in all wells at a constant concentration of 4 μg/mL each.

Serratia marcescens S6 = settings: for MIC of antibiotic at fixed inhibitor concentration (4 mg/L): MIC of antibiotic compound 1 with the labelled bridged monobactam of formula II and clavulanate, 4 mg/L each
Enterobacter cloacae P99 = settings: for MIC of antibiotic at fixed inhibitor concentration (4 mg/L): MIC of antibiotic compound 1 with the labelled bridged monobactam of formula II and clavulanate, 4 mg/L each
[2] = tested on: Klebsiella pneumoniae CF104; settings: for MIC of antibiotic at fixed inhibitor concentration (4 mg/L): MIC of antibiotic compound 1 with the labelled bridged monobactam of formula II and clavulanate, 4 mg/L each
[3] = tested on: Pseudomonas aeruginosa MK1184; settings: for MIC of antibiotic at fixed inhibitor concentration (4 mg/L): MIC of antibiotic compound 1 with the labelled bridged monobactam of formula II and clavulanate, 4 mg/L each
[4] = tested on: Pseudomonas aeruginosa 1973E; settings: for MIC of antibiotic at fixed inhibitor concentration (4 mg/L): MIC of antibiotic compound 1 with the labelled bridged monobactam of formula II and clavulanate, 4 mg/L each
How it was run: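 Broth microdilution following NCCLS M7-A5, with final DMSO ≤1%. Plates were incubated overnight at 30° C. or 37° C. and growth was read by eye; MIC is the lowest concentration giving complete inhibition of visible growth. In combination tests the formula I compound was serially diluted while partner compounds were held at 4 μg/mL each.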

Q: Which results are given for `O=C(C[n+]1cccc(C(F)(F)F)c1)N1CC[C@@H]2[C@H]1C(=O)N2S(=O)(=O)[O-]` [Compound 120, (1S,5R)-7-oxo-2-{2-[3-(trifluoromethyl)pyridinium]acetyl}-2,6-diazabicyclo[3.2.0]heptane-6-sulfonate, inner salt]?
A: MIC of antibiotic at fixed inhibitor concentration (4 mg/L) [1]: 0.125 mg/L; MIC of antibiotic at fixed inhibitor concentration (4 mg/L) (Acinetobacter sp. J2): 32 mg/L; MIC of antibiotic at fixed inhibitor concentration (4 mg/L) (Serratia marcescens S6): 0.25 mg/L; MIC of antibiotic at fixed inhibitor concentration (4 mg/L) (Enterobacter cloacae P99): 32 mg/L; MIC of antibiotic at fixed inhibitor concentration (4 mg/L) [2]: 0.25 mg/L; MIC of antibiotic at fixed inhibitor concentration (4 mg/L) [3]: 16 mg/L; MIC of antibiotic at fixed inhibitor concentration (4 mg/L) [4]: 8 mg/L

Q: What does the source list for `O=C(Nc1cccc(O)c1)N1CC[C@@H]2[C@H]1C(=O)N2S(=O)(=O)[O-].[Na+]` [Compound 317]?
A: MIC of antibiotic at fixed inhibitor concentration (4 mg/L) [1]: 0.125 mg/L; MIC of antibiotic at fixed inhibitor concentration (4 mg/L) (Acinetobacter sp. J2): 16 mg/L; MIC of antibiotic at fixed inhibitor concentration (4 mg/L) (Serratia marcescens S6): 0.25 mg/L; MIC of antibiotic at fixed inhibitor concentration (4 mg/L) (Enterobacter cloacae P99): 8 mg/L; MIC of antibiotic at fixed inhibitor concentration (4 mg/L) [2]: 0.5 mg/L; MIC of antibiotic at fixed inhibitor concentration (4 mg/L) [3]: >32 mg/L; MIC of antibiotic at fixed inhibitor concentration (4 mg/L) [4]: 8 mg/L

Q: How did the “MIC of antibiotic at fixed inhibitor concentration (4 mg/L)” value [1] turn out when `O=C(NC1CC1)c1ccc[n+](CC(=O)N2CC[C@@H]3[C@H]2C(=O)N3S(=O)(=O)[O-])c1` [Compound 109, (1S,5R)-2-{2-[3-(N-cyclopropylcarbamoyl)pyridinium]acetyl}-7-oxo-2,6-diazabicyclo[3.2.0]heptane-6-sulfonate, inner salt] was run?
A: 0.125 mg/L

Q: What about the “MIC of antibiotic at fixed inhibitor concentration (4 mg/L)” value (Acinetobacter sp. J2) of the same compound?
A: 4 mg/L

Q: And the “MIC of antibiotic at fixed inhibitor concentration (4 mg/L)” value (Serratia marcescens S6)?
A: 0.125 mg/L

Q: What about the “MIC of antibiotic at fixed inhibitor concentration (4 mg/L)” value (Enterobacter cloacae P99) of the same compound?
A: 32 mg/L

Q: And the “MIC of antibiotic at fixed inhibitor concentration (4 mg/L)” value [2]?
A: 0.5 mg/L

Q: What about the “MIC of antibiotic at fixed inhibitor concentration (4 mg/L)” value [3] of the same compound?
A: 16 mg/L

Q: What about the “MIC of antibiotic at fixed inhibitor concentration (4 mg/L)” value [4] of the same compound?
A: 4 mg/L

Q: Which MIC of antibiotic ([1]; Stenotrophomonas maltophilia 1AC736, antibiotic alone, no inhibitor) does the source give for `C[C@H]1[C@H](NC(=O)/C(=N\OCc2cc(=O)c(O)cn2O)c2nccc(N)n2)C(=O)N1S(=O)(=O)O` [Compound 21, (3S,4S)-3-{(2Z)-2-(4-aminopyrimidin-2-yl)-3-[(1,5-dihydroxy-4-oxo(2-hydropyridyl))methoxy]-3-azaprop-2-enoylamino}-4-methyl-2-oxoazetidinesulfonic acid] here?
A: 8 mg/L

Q: What about the “MIC of antibiotic at fixed inhibitor concentration of 4 mg/L” value ([1]; Stenotrophomonas maltophilia 1AC736, with 102 and clavulanate) of the same compound?
A: 2 mg/L

Q: And the “MIC of antibiotic at fixed inhibitor concentration of 4 mg/L” value ([1]; Stenotrophomonas maltophilia 1AC736, with 102 and sulbactam)?
A: 8 mg/L

Q: And the “MIC of antibiotic at fixed inhibitor concentration of 4 mg/L” value ([1]; Stenotrophomonas maltophilia 1AC736, with 323 and clavulanate)?
A: 2 mg/L

Q: And the “MIC of antibiotic at fixed inhibitor concentration of 4 mg/L” value ([1]; Stenotrophomonas maltophilia 1AC736, with 323 and sulbactam)?
A: 4 mg/L

Q: What about the “MIC of antibiotic at fixed inhibitor concentration of 4 mg/L” value ([1]; Stenotrophomonas maltophilia 1AC736, with 324 and sulbactam) of the same compound?
A: 4 mg/L

Q: What about the MIC of antibiotic (Acinetobacter sp. J2; Acinetobacter baumannii J2, antibiotic alone, no inhibitor) of the same compound?
A: >32 mg/L

Q: And the “MIC of antibiotic at fixed inhibitor concentration of 4 mg/L” value (Acinetobacter sp. J2; Acinetobacter baumannii J2, with 102 and clavulanate)?
A: >32 mg/L

Q: And the “MIC of antibiotic at fixed inhibitor concentration of 4 mg/L” value (Acinetobacter sp. J2; Acinetobacter baumannii J2, with 102 and sulbactam)?
A: 2 mg/L

Q: And the “MIC of antibiotic at fixed inhibitor concentration of 4 mg/L” value (Acinetobacter sp. J2; Acinetobacter baumannii J2, with 323 and clavulanate)?
A: 8 mg/L

Q: And the “MIC of antibiotic at fixed inhibitor concentration of 4 mg/L” value (Acinetobacter sp. J2; Acinetobacter baumannii J2, with 323 and sulbactam)?
A: 2 mg/L

Q: What about the “MIC of antibiotic at fixed inhibitor concentration of 4 mg/L” value (Acinetobacter sp. J2; Acinetobacter baumannii J2, with 324 and sulbactam) of the same compound?
A: 2 mg/L

Q: What about the MIC of antibiotic (Serratia marcescens S6; antibiotic alone, no inhibitor) of the same compound?
A: 8 mg/L

Q: What about the “MIC of antibiotic at fixed inhibitor concentration of 4 mg/L” value (Serratia marcescens S6; with 102 and clavulanate) of the same compound?
A: 0.5 mg/L

Q: What about the “MIC of antibiotic at fixed inhibitor concentration of 4 mg/L” value (Serratia marcescens S6; with 102 and sulbactam) of the same compound?
A: 16 mg/L

Q: And the “MIC of antibiotic at fixed inhibitor concentration of 4 mg/L” value (Serratia marcescens S6; with 323 and clavulanate)?
A: 2 mg/L

Q: And the “MIC of antibiotic at fixed inhibitor concentration of 4 mg/L” value (Serratia marcescens S6; with 323 and sulbactam)?
A: 2 mg/L

Q: What about the “MIC of antibiotic at fixed inhibitor concentration of 4 mg/L” value (Serratia marcescens S6; with 324 and sulbactam) of the same compound?
A: 4 mg/L

Q: And the MIC of antibiotic (Enterobacter cloacae P99; antibiotic alone, no inhibitor)?
A: >32 mg/L

Q: What about the “MIC of antibiotic at fixed inhibitor concentration of 4 mg/L” value (Enterobacter cloacae P99; with 102 and clavulanate) of the same compound?
A: 32 mg/L

Q: And the “MIC of antibiotic at fixed inhibitor concentration of 4 mg/L” value (Enterobacter cloacae P99; with 102 and sulbactam)?
A: 32 mg/L

Q: And the “MIC of antibiotic at fixed inhibitor concentration of 4 mg/L” value (Enterobacter cloacae P99; with 323 and clavulanate)?
A: 8 mg/L

Q: And the “MIC of antibiotic at fixed inhibitor concentration of 4 mg/L” value (Enterobacter cloacae P99; with 323 and sulbactam)?
A: 8 mg/L

Q: What about the “MIC of antibiotic at fixed inhibitor concentration of 4 mg/L” value (Enterobacter cloacae P99; with 324 and sulbactam) of the same compound?
A: 8 mg/L

Q: What about the MIC of antibiotic ([2]; antibiotic alone, no inhibitor) of the same compound?
A: >32 mg/L

Q: What about the “MIC of antibiotic at fixed inhibitor concentration of 4 mg/L” value ([2]; with 102 and clavulanate) of the same compound?
A: <0.06 mg/L

Q: What about the “MIC of antibiotic at fixed inhibitor concentration of 4 mg/L” value ([2]; with 102 and sulbactam) of the same compound?
A: 2 mg/L

Q: And the “MIC of antibiotic at fixed inhibitor concentration of 4 mg/L” value ([2]; with 323 and clavulanate)?
A: 2 mg/L

Q: What about the “MIC of antibiotic at fixed inhibitor concentration of 4 mg/L” value ([2]; with 323 and sulbactam) of the same compound?
A: 1 mg/L

Q: And the “MIC of antibiotic at fixed inhibitor concentration of 4 mg/L” value ([2]; with 324 and sulbactam)?
A: 4 mg/L

Q: And the MIC of antibiotic ([3]; antibiotic alone, no inhibitor)?
A: >32 mg/L

Q: What about the “MIC of antibiotic at fixed inhibitor concentration of 4 mg/L” value ([3]; with 102 and clavulanate) of the same compound?
A: 16 mg/L

Q: What about the “MIC of antibiotic at fixed inhibitor concentration of 4 mg/L” value ([3]; with 102 and sulbactam) of the same compound?
A: 32 mg/L

Q: What about the “MIC of antibiotic at fixed inhibitor concentration of 4 mg/L” value ([3]; with 323 and clavulanate) of the same compound?
A: 32 mg/L

Q: And the “MIC of antibiotic at fixed inhibitor concentration of 4 mg/L” value ([3]; with 323 and sulbactam)?
A: 8 mg/L

Q: And the “MIC of antibiotic at fixed inhibitor concentration of 4 mg/L” value ([3]; with 324 and sulbactam)?
A: 32 mg/L

Q: What about the MIC of antibiotic ([4]; antibiotic alone, no inhibitor) of the same compound?
A: 8 mg/L

Q: And the “MIC of antibiotic at fixed inhibitor concentration of 4 mg/L” value ([4]; with 102 and clavulanate)?
A: 8 mg/L

Q: And the “MIC of antibiotic at fixed inhibitor concentration of 4 mg/L” value ([4]; with 102 and sulbactam)?
A: 16 mg/L

Q: What about the “MIC of antibiotic at fixed inhibitor concentration of 4 mg/L” value ([4]; with 323 and clavulanate) of the same compound?
A: 16 mg/L

Q: And the “MIC of antibiotic at fixed inhibitor concentration of 4 mg/L” value ([4]; with 323 and sulbactam)?
A: 32 mg/L

Q: What about the “MIC of antibiotic at fixed inhibitor concentration of 4 mg/L” value ([4]; with 324 and sulbactam) of the same compound?
A: 16 mg/L
